Consider three molecules from PMC5748644, “Synthesis and In Vitro Cytotoxicity of the 4-(Halogenoanilino)-6-bromoquinazolines and Their 6-(4-Fluorophenyl) Substituted Derivatives as Potential Inhibitors of Epidermal Growth Factor Receptor Tyrosine Kinase” (Pharmaceuticals, 2017).

Structures are written as SMILES.

The target of the assay is T1, epidermal growth factor receptor tyrosine kinase (EGFR-TK) (Homo sapiens, UniProt P00533).
T1 construct: commercial purified EGFR (Sigma-Aldrich), called both purified Epidermal Growth Factor Receptor and purified recombinant EGFR tyrosine kinase
T1 sequence (P00533 25-1210): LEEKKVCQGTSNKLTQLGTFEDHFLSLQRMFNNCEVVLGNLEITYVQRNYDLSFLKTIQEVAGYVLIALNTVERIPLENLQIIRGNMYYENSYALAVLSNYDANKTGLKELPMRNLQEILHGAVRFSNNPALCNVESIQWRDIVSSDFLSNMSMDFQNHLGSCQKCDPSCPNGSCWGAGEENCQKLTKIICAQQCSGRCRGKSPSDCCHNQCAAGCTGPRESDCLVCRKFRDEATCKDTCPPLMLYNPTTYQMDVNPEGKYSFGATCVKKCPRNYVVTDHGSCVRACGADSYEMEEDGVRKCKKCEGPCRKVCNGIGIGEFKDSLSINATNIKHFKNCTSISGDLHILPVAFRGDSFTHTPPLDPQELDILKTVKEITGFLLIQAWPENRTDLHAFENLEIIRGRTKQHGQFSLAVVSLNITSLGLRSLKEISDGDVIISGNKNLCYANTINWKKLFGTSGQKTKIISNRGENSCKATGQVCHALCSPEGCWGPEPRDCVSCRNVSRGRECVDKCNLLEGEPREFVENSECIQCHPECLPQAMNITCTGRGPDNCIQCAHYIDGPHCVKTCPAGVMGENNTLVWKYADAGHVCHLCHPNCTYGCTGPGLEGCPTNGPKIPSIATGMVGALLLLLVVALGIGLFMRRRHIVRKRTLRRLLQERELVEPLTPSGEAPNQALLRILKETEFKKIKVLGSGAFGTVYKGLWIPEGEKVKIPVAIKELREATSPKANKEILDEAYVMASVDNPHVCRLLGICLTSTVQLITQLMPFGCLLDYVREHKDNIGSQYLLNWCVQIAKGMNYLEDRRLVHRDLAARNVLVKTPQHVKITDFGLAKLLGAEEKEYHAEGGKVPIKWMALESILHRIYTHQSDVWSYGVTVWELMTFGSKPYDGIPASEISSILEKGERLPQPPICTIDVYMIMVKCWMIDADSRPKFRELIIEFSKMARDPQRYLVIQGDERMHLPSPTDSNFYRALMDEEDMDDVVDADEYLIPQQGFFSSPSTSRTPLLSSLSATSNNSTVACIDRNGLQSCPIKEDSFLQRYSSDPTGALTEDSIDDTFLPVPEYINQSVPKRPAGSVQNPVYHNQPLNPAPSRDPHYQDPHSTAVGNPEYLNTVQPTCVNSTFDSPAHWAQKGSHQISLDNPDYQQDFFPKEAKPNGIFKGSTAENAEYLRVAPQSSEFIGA
The experiment in a line: ELISA kinase assay, poly(Glu,Tyr) phosphorylation, anti-phosphotyrosine antibody, […] nm. In kind it is biochemical.
The molecule `Fc1ccc(-c2ccc3nc(-c4ccc(Cl)cc4)nc(Nc4ccc(F)cc4F)c3c2)cc1` [4l, [2-(4-Chlorophenyl)-6-(4-fluorophenyl)quinazolin-4-yl]-2,4-difluorophenylamine] gave an IC50 of 59.2 nM.
To `Fc1ccccc1Nc1nc(-c2ccc(Cl)cc2)nc2ccc(Br)cc12` [3g, 6-Bromo-2-(4-chlorophenyl)-N-(2-fluorophenyl)quinazolin-4-amine] belongs 70 nM.
For `Fc1ccc(Nc2nc(-c3ccc(Cl)cc3)nc3ccc(Br)cc23)c(F)c1` [3l, 6-Bromo-2-(4-chlorophenyl)-N-(2,4-difluorophenyl)quinazolin-4-amine], the IC50 is 37.7 nM. This IC50 lies about 1.9-fold lower than the previous one.
